Experimental data reported in BindingDB's records for doi:10.1021/jm020994z (Universit&#224, 2003).

Key:
[1] = Binding affinity of compound was tested for Sigma receptor type 1
[2] = target: Sigma intracellular receptor 2 (Rattus norvegicus); test: Binding affinity of compound was tested for Sigma receptor type 2

Ki [1] | Ki [2] | Compound
61 nM |  | O=C(CCCCCN1CCN(c2noc3ccccc23)CC1)c1ccccc1O [6-(4-Benzo[d]isoxazol-3-yl-piperazin-1-yl)-1-(2-hydroxy-phenyl)-hexan-1-one]
4300 nM | 147 nM | COc1ccccc1C(=O)CCCCCN1CCN(c2noc3ccccc23)CC1 [6-(4-Benzo[d]isoxazol-3-yl-piperazin-1-yl)-1-(2-methoxy-phenyl)-hexan-1-one]
